In ChEMBL document CHEMBL3044825, “Synthesis and in vitro microbial activities of amides of pyridoquinolone” (2011) one finds zone of inhibition data, which are given here for 22 compounds.

Common to all, as to assay type: functional
What all share (conditions): read-out: IZ

For one experiment, the system named is Candida albicans. The experiment can be described thus: Antifungal activity against Candida albicans at 100 ug/ml by cup-plate method.
The test system of another experiment is Bacillus subtilis. Put plainly: Antibacterial activity against Bacillus subtilis at 100 ug/ml by cup plate method.
A further experiment has as its system Staphylococcus aureus. Put plainly: Antibacterial activity against Staphylococcus aureus at 100 ug/ml by cup-plate method.
For another experiment, the system named is Pseudomonas aeruginosa. Put plainly: Antibacterial activity against Pseudomonas aeruginosa at 100 ug/ml by cup-plate method.
For the next experiment, the system named is Escherichia coli. Put plainly: Antibacterial activity against Escherichia coli at 100 ug/ml by cup-plate method.

In the case of `COc1ccccc1NC(=S)NC(=O)c1cn(CCO)c2c(cc(O)c3ncccc32)c1=O`, the zone of inhibition at 100 µg/mL is 0 mm in the experiment on Candida albicans; 0 mm in the experiment with Bacillus subtilis; 4 mm in the experiment on Staphylococcus aureus; 4 mm with Pseudomonas aeruginosa; 0 mm with Escherichia coli.

As for `O=C(Nc1ccccc1)c1cn(CCO)c2c(cc(O)c3ncccc32)c1=O`, the zone of inhibition at 100 µg/mL was 1 mm in the experiment on Candida albicans; 6 mm with Bacillus subtilis; 7 mm with Staphylococcus aureus; 8 mm in the experiment on Pseudomonas aeruginosa; 8 mm with Escherichia coli.

Regarding `O=C(NC(=S)Nc1cccc([N+](=O)[O-])c1)c1cn(CCO)c2c(cc(Cl)c3ncccc32)c1=O`, the zone of inhibition at 100 µg/mL is 1 mm in the experiment on Candida albicans; 6 mm in the experiment with Bacillus subtilis; 8 mm with Staphylococcus aureus; 8 mm in the experiment on Pseudomonas aeruginosa; 0 mm in the experiment on Escherichia coli.

For the compound `Cc1cccc(NC(=S)NC(=O)c2cn(CCO)c3c(cc(Cl)c4ncccc43)c2=O)c1`, the zone of inhibition at 100 µg/mL in the experiment on Candida albicans worked out at 4 mm; in the experiment with Bacillus subtilis, 9 mm; with Staphylococcus aureus it was 10 mm; in the experiment on Pseudomonas aeruginosa it was 10 mm; with Escherichia coli it was 11 mm.

Consider `O=C(Nc1cccc([N+](=O)[O-])c1)c1cn(CCO)c2c(cc(O)c3ncccc32)c1=O`, for which the zone of inhibition at 100 µg/mL came out at 2 mm with Candida albicans; 8 mm in the experiment on Bacillus subtilis; 7 mm in the experiment with Staphylococcus aureus; 10 mm in the experiment on Pseudomonas aeruginosa; 8 mm in the experiment with Escherichia coli.

For the compound `O=C(NC(=S)Nc1ccc(O)cc1)c1cn(CCO)c2c(cc(Cl)c3ncccc32)c1=O`, the zone of inhibition at 100 µg/mL in the experiment with Candida albicans was determined as 5 mm; with Bacillus subtilis it was 11 mm; in the experiment with Staphylococcus aureus, 12 mm; with Pseudomonas aeruginosa, 11 mm; in the experiment on Escherichia coli it was 12 mm.

Consider `Cc1cccc(NS(=O)(=O)c2ccc(NC(=O)c3cn(CCO)c4c(cc(Cl)c5ncccc54)c3=O)cc2)c1`, for which the zone of inhibition at 100 µg/mL in the experiment with Candida albicans came to 0 mm; with Bacillus subtilis, 6 mm; in the experiment on Staphylococcus aureus it was 0 mm; in the experiment on Pseudomonas aeruginosa, 4 mm; in the experiment on Escherichia coli, 0 mm.

With `O=C(Nc1ccc(S(=O)(=O)Nc2ccc([N+](=O)[O-])cc2)cc1)c1cn(CCO)c2c(cc(O)c3ncccc32)c1=O`, the zone of inhibition at 100 µg/mL in the experiment with Candida albicans came to 4 mm; in the experiment with Bacillus subtilis it was 11 mm; with Staphylococcus aureus, 10 mm; with Pseudomonas aeruginosa, 10 mm; in the experiment on Escherichia coli, 12 mm.

As for `Cc1cccc(NS(=O)(=O)c2ccc(NC(=O)c3cn(CCO)c4c(cc(O)c5ncccc54)c3=O)cc2)c1`, the zone of inhibition at 100 µg/mL in the experiment on Candida albicans is 5 mm; in the experiment on Bacillus subtilis, 12 mm; in the experiment with Staphylococcus aureus, 11 mm; with Pseudomonas aeruginosa, 11 mm; with Escherichia coli it was 10 mm.

`COc1ccccc1NC(=O)c1cn(CCO)c2c(cc(Cl)c3ncccc32)c1=O`: the zone of inhibition at 100 µg/mL in the experiment on Candida albicans was determined as 3 mm; with Bacillus subtilis it was 10 mm; with Staphylococcus aureus it was 9 mm; in the experiment with Pseudomonas aeruginosa, 8 mm; in the experiment with Escherichia coli, 8 mm.

Take `O=C(NC(=S)Nc1ccc([N+](=O)[O-])cc1)c1cn(CCO)c2c(cc(Cl)c3ncccc32)c1=O`: the zone of inhibition at 100 µg/mL came out at 5 mm in the experiment with Candida albicans; 12 mm in the experiment with Bacillus subtilis; 11 mm with Staphylococcus aureus; 9 mm in the experiment with Pseudomonas aeruginosa; 10 mm with Escherichia coli.

`Cc1ccccc1NS(=O)(=O)c1ccc(NC(=O)c2cn(CCO)c3c(cc(O)c4ncccc43)c2=O)cc1`: the zone of inhibition at 100 µg/mL is 0 mm in the experiment with Candida albicans; 6 mm with Bacillus subtilis; 4 mm in the experiment with Staphylococcus aureus; 4 mm in the experiment with Pseudomonas aeruginosa; 0 mm in the experiment on Escherichia coli.

Take `O=C(NC(=S)Nc1cccc(O)c1)c1cn(CCO)c2c(cc(Cl)c3ncccc32)c1=O`: the zone of inhibition at 100 µg/mL in the experiment on Candida albicans came out at 2 mm; with Bacillus subtilis, 9 mm; in the experiment on Staphylococcus aureus it was 8 mm; in the experiment on Pseudomonas aeruginosa it was 6 mm; in the experiment on Escherichia coli it was 8 mm.

`O=C(Nc1ccccc1[N+](=O)[O-])c1cn(CCO)c2c(cc(O)c3ncccc32)c1=O`: the zone of inhibition at 100 µg/mL in the experiment with Candida albicans stood at 4 mm; in the experiment with Bacillus subtilis, 11 mm; with Staphylococcus aureus, 10 mm; in the experiment with Pseudomonas aeruginosa it was 9 mm; in the experiment with Escherichia coli, 9 mm.

Regarding `O=C(NC(=S)Nc1ccc([N+](=O)[O-])cc1)c1cn(CCO)c2c(cc(O)c3ncccc32)c1=O`, the zone of inhibition at 100 µg/mL was 4 mm in the experiment on Candida albicans; 9 mm in the experiment on Bacillus subtilis; 10 mm in the experiment on Staphylococcus aureus; 10 mm in the experiment on Pseudomonas aeruginosa; 12 mm in the experiment on Escherichia coli.

As to `Cc1ccc(C)c(NS(=O)(=O)c2ccc(NC(=O)c3cn(CCO)c4c(cc(O)c5ncccc54)c3=O)cc2)c1`, the zone of inhibition at 100 µg/mL worked out at 4 mm in the experiment on Candida albicans; 9 mm with Bacillus subtilis; 11 mm in the experiment with Staphylococcus aureus; 11 mm in the experiment with Pseudomonas aeruginosa; 10 mm in the experiment on Escherichia coli.

For `Cc1ccc(NS(=O)(=O)c2ccc(NC(=O)c3cn(CCO)c4c(cc(Cl)c5ncccc54)c3=O)cc2)cc1`, the zone of inhibition at 100 µg/mL in the experiment with Candida albicans was determined as 1 mm; in the experiment with Bacillus subtilis, 6 mm; in the experiment with Staphylococcus aureus it was 5 mm; with Pseudomonas aeruginosa, 7 mm; in the experiment on Escherichia coli it was 5 mm.

`O=C(NC(=S)Nc1cccc(O)c1)c1cn(CCO)c2c(cc(O)c3ncccc32)c1=O`: the zone of inhibition at 100 µg/mL in the experiment with Candida albicans was determined as 3 mm; in the experiment on Bacillus subtilis, 10 mm; with Staphylococcus aureus, 8 mm; in the experiment with Pseudomonas aeruginosa, 7 mm; in the experiment with Escherichia coli it was 9 mm.

As to `O=C(NC(=S)Nc1cccc(Cl)c1)c1cn(CCO)c2c(cc(O)c3ncccc32)c1=O`, the zone of inhibition at 100 µg/mL is 3 mm with Candida albicans; 10 mm in the experiment with Bacillus subtilis; 9 mm with Staphylococcus aureus; 9 mm in the experiment with Pseudomonas aeruginosa; 10 mm with Escherichia coli.

Regarding `Cc1cccc(NC(=O)c2cn(CCO)c3c(cc(Cl)c4ncccc43)c2=O)c1`, the zone of inhibition at 100 µg/mL is 4 mm in the experiment on Candida albicans; 9 mm in the experiment on Bacillus subtilis; 10 mm in the experiment with Staphylococcus aureus; 10 mm with Pseudomonas aeruginosa; 10 mm with Escherichia coli.

For the compound `COc1ccc(NC(=O)c2cn(CCO)c3c(cc(O)c4ncccc43)c2=O)cc1`, the zone of inhibition at 100 µg/mL with Candida albicans worked out at 5 mm; with Bacillus subtilis, 12 mm; with Staphylococcus aureus, 10 mm; in the experiment on Pseudomonas aeruginosa it was 10 mm; in the experiment on Escherichia coli it was 11 mm.

Consider `Cc1ccccc1NC(=O)c1cn(CCO)c2c(cc(Cl)c3ncccc32)c1=O`, for which the zone of inhibition at 100 µg/mL came out at 0 mm in the experiment on Candida albicans; 5 mm with Bacillus subtilis; 0 mm in the experiment with Staphylococcus aureus; 4 mm in the experiment with Pseudomonas aeruginosa; 7 mm in the experiment on Escherichia coli.
